{
  "source": "patent EP4691462A1",
  "about": "“SILYBIN-CONTAINING COMPOSITION” (Tianjin Tasly Sants Pharmaceutical Co., Ltd., priority 2023, dated 2024)",
  "data": [
    {"system": "Col1a1-Luci-reporter luciferase in LX-2 cells", "assay": "HSCs activation model based on Col1a1-Luci-reporter luciferase in transfected LX-2 cells (Duo-Lite luciferase assay; CI by CompuSyn)", "type": "cell-based, human", "conditions": "10 µM, 20 µM, 50 µM, 12 hours", "method": "(§1) LX-2 cells were inoculated into 96-well plates and cultured to a suitable density. Then, Lipofectamine 3000 liposome transfection reagent was used to prepare transfection system. Each well was transfected with 0.1 µg plasmid, of which the Empty vector group was transfected with pEZX-FR03-hygro empty plasmid, and the Control group and other administration groups were transfected with pEZX-FR03-hygro-COL1A1-WT plasmid.\n(§2) The LX-2 cell line was transfected with plasmid for 6 hours, and then the drug-containing serum-free medium containing 2.5 mM, 5 mM, and 10 mM anti-fibrosis agent Pirfenidone was replaced according to groups for incubation for 12 hours, and then tested by the Duo-LitTM Luciferase Assay System kit.\n(§3) The cell culture plate to be tested was taken out into the incubator, and left at room temperature for 30 min to allow the temperature of the culture plate to be balanced to room temperature. Firefly luciferase activity was detected. The original culture medium was discarded, and added with 75 µl PBS, then added with Duo-Lite Luciferase detection reagent with the same volume as PBS, and was mixed evenly. The system was left at room temperature for 10 min to detect firefly luciferase luminescence.\n(§4) The LX-2 cell line was transfected with plasmid for 6 hours, and then the drug-containing serum-free medium containing 10 µM, 20 µM, 50 µM Silybin was replaced according to groups for incubation for 12 hours, and then tested by the Duo-LitTM Luciferase Assay System kit.\nas §4, with “µM silybin, 10 µM drug to be screened,” for “µM,”, “20” for “20 µM, 50”, “silybin, 20 µM drug to be screened at a mixed ratio of 1:1” for “Silybin”\n(§5) Cell activation inhibition rate% = (Control Group Firefly- Administration Group Firefly)/ Control Group Firefly ×100%. The CI value was obtained by analysis using micro-use CompuSyn software. […]", "values": [
      {"smiles": "COc1cc(C2Oc3cc([C@H]4Oc5cc(O)cc(O)c5C(=O)[C@@H]4O)ccc3OC2CO)ccc1O", "note": "(stereo partly shown) [silybin]", "inhibitory effect on activation of stellate cells in vitro": "no significant inhibitory effect"}
    ]},
    {"system": "Col1a1-Luci-reporter luciferase in LX-2 cells", "assay": "HSCs activation model based on Col1a1-Luci-reporter luciferase in transfected LX-2 cells (Duo-Lite luciferase assay; CI by CompuSyn)", "type": "cell-based, human", "conditions": "5 mM and 10 mM, 12 hours, clear dose-dependence", "method": "as §1, §2, §3, §4\nas §4, with “µM silybin, 10 µM drug to be screened,” for “µM,”, “20” for “20 µM, 50”, “silybin, 20 µM drug to be screened at a mixed ratio of 1:1” for “Silybin”\nas §5", "values": [
      {"smiles": "Cc1ccc(=O)n(-c2ccccc2)c1", "note": "[Pirfenidone]", "expression level of luciferase": "significantly decreased"}
    ]},
    {"system": "Col1a1-Luci-reporter luciferase in LX-2 cells", "assay": "HSCs activation model based on Col1a1-Luci-reporter luciferase in transfected LX-2 cells (Duo-Lite luciferase assay; CI by CompuSyn)", "type": "cell-based, human", "conditions": "named drug combined with silybin, mixed ratio 1:1, 12 hours, CI<0.90 synergistic, 0.90<CI<1.10 additive", "method": "as §1, §2, §3, §4\nas §4, with “µM silybin, 10 µM drug to be screened,” for “µM,”, “20” for “20 µM, 50”, “silybin, 20 µM drug to be screened at a mixed ratio of 1:1” for “Silybin”\nas §5", "values": [
      {"smiles": "OC[C@@H](O)[C@@H](O)[C@H](O)[C@H](O)CO", "note": "[D-mannitol]", "CI": 0.66},
      {"smiles": "O=C(O)COC(=O)Cc1ccccc1Nc1c(Cl)cccc1Cl", "note": "[aceclofenac]", "CI": 0.46},
      {"smiles": "CCOC(=O)C1=C(COCCN)NC(C)=C(C(=O)OC)C1c1ccccc1Cl", "note": "(stereo not shown) [amlodipine]", "CI": 0.62},
      {"smiles": "CCCC1O[C@@H]2C[C@H]3[C@@H]4CCC5=CC(=O)C=C[C@]5(C)[C@H]4[C@@H](O)C[C@]3(C)[C@]2(C(=O)CO)O1", "note": "(stereo partly shown) [budesonide]", "CI": 0.91},
      {"smiles": "COc1ccccc1OCCNCC(O)COc1cccc2[nH]c3ccccc3c12", "note": "(stereo not shown) [carvedilol]", "CI": 0.11},
      {"smiles": "COCCOC(=O)C1=C(C)NC(C)=C(C(=O)OC/C=C/c2ccccc2)C1c1cccc([N+](=O)[O-])c1", "note": "(stereo not shown) [cilnidipine]", "CI": 0.79},
      {"smiles": "CCC(=O)O[C@]1(C(=O)CCl)[C@@H](C)C[C@H]2[C@@H]3CCC4=CC(=O)C=C[C@]4(C)[C@@]3(F)[C@@H](O)C[C@@]21C", "note": "[clobetasol propionate]", "CI": 0.86},
      {"smiles": "COC(=O)C1=C(C)NC(C)=C(C(=O)OCCN2CCN(C(c3ccccc3)c3ccccc3)CC2)C1c1cccc([N+](=O)[O-])c1", "note": "(stereo not shown) [manidipine]", "CI": 0.54},
      {"smiles": "COC(=O)C1=C(C)NC(C)=C(C(=O)OCCN(C)Cc2ccccc2)C1c1cccc([N+](=O)[O-])c1", "note": "(stereo not shown) [nicardipine]", "CI": 0.31},
      {"smiles": "CCOc1ccccc1OCCN[C@H](C)Cc1ccc(OC)c(S(N)(=O)=O)c1", "note": "[tamsulosin]", "CI": 0.50},
      {"smiles": "CCCCC(=O)N(Cc1ccc(-c2ccccc2-c2nnn[nH]2)cc1)[C@H](C(=O)O)C(C)C", "note": "[valsartan]", "CI": 0.47}
    ]}
  ]
}
